Test results from BigSolDB 2.1.

O=C1Nc2ccccc2C1=O
Conditions | solubility (mole fraction)
in 1,4-dioxane, 293.15 K | 0.0162
in 1,4-dioxane, 298.15 K | 0.0188
in 1,4-dioxane, 303.15 K | 0.0218
in 1,4-dioxane, 308.15 K | 0.0252
in 1,4-dioxane, 313.15 K | 0.029
in 1,4-dioxane, 318.15 K | 0.0331
in 1,4-dioxane, 323.15 K | 0.0378
in 1,4-dioxane, 328.15 K | 0.0428
in 1,4-dioxane, 333.15 K | 0.0484
in DMF, 283.15 K | 0.127
in DMF, 288.25 K | 0.135
in DMF, 293.25 K | 0.143
in DMF, 298.15 K | 0.151
in DMF, 303.15 K | 0.16
in DMF, 308.25 K | 0.17
in DMF, 313.25 K | 0.179
in DMF, 318.45 K | 0.19
in DMF, 323.15 K | 0.198
in DMF, 328.15 K | 0.209
in DMF, 333.15 K | 0.218
in THF, 289.85 K | 0.0197
in THF, 297.15 K | 0.0234
in THF, 301.15 K | 0.0254
in THF, 305.15 K | 0.028
in THF, 308.95 K | 0.0301
in THF, 314.05 K | 0.0335
in THF, 318.35 K | 0.0367
in THF, 323.15 K | 0.0399
in acetone, 287.25 K | 0.0109
in acetone, 292.75 K | 0.0125
in acetone, 298.45 K | 0.014
in acetone, 302.65 K | 0.0158
in acetone, 308.35 K | 0.0174
in acetone, 312.65 K | 0.0193
in acetone, 318.15 K | 0.0217
in acetone, 323.35 K | 0.0241
in acetonitrile, 283.15 K | 0.0042
in acetonitrile, 288.35 K | 0.00498
in acetonitrile, 294.65 K | 0.00608
in acetonitrile, 298.15 K | 0.00675
in acetonitrile, 303.15 K | 0.00789
in acetonitrile, 308.15 K | 0.00893
in acetonitrile, 313.15 K | 0.0103
in acetonitrile, 318.15 K | 0.0118
in acetonitrile, 323.15 K | 0.0136
in dichloromethane, 278.15 K | 0.000788
in dichloromethane, 282.35 K | 0.000876
in dichloromethane, 286.25 K | 0.000982
in dichloromethane, 290.55 K | 0.0011
in dichloromethane, 293.15 K | 0.0012
in dichloromethane, 296.95 K | 0.00132
in dichloromethane, 299.85 K | 0.00141
in dichloromethane, 303.25 K | 0.00153
in dichloromethane, 307.65 K | 0.0017
in ethyl acetate, 288.15 K | 0.00421
in ethyl acetate, 293.35 K | 0.0048
in ethyl acetate, 298.25 K | 0.00565
in ethyl acetate, 303.65 K | 0.00637
in ethyl acetate, 308.65 K | 0.00733
in ethyl acetate, 313.35 K | 0.00822
in ethyl acetate, 318.15 K | 0.0092
in ethyl acetate, 323.35 K | 0.0103
in toluene, 288.15 K | 0.000588
in toluene, 293.15 K | 0.000637
in toluene, 298.15 K | 0.000685
in toluene, 303.15 K | 0.000714
in toluene, 308.15 K | 0.000771
in toluene, 313.15 K | 0.000819
in toluene, 318.15 K | 0.000884
in toluene, 323.15 K | 0.000926
